Source: US20260115139A1, “Amino Acid-Containing Ionizable Lipids for the Delivery of Therapeutic Agents” (NanoVation Therapeutics Inc., priority 2022, published 2026)

tested on: liver; assay: In vivo delivery of luciferase mRNA LNPs, luminescence in liver; conditions: LNP 50/10/38.5/1.5 mol % ionizable lipid/DSPC/chol/PEG-DMG, N/P=6, luciferase mRNA 1 mg/kg intravenous, CD-1 mice, 4 hours post-injection
Description: The mRNA dose was 1 mg/kg.

| Structure (SMILES) | luminescence intensity per mg liver compared with the MC3 benchmark (lipid 1) |
| --- | --- |
| CCCCCCCCC(CCCCCC)C(=O)OCCCCCC(CCCCCOC(=O)CN(C)C(=O)C(CCCCCC)CCCCCCCC)OC(=O)CCCN(C)C (stereo not shown) [lipid 6, 6-((4-(Dimethylamino)butanoyl)oxy)-11-((N-(2-hexyldecanoyl)-N-methylglycyl)oxy)-undecyl 2-hexyldecanoate] | higher |
| CCCCCCCCC(CCCCCC)C(=O)N(C)CC(=O)OCCCCCC1(CCCCCOC(=O)CN(C)C(=O)C(CCCCCC)CCCCCCCC)OCC(CCOC(=O)CCCN(C)C)O1 (stereo not shown) [lipid 17, (4-(2-((4-(dimethylamino)butanoyl)oxy)ethyl)-1,3-dioxolane-2,2-diyl)bis(pentane-5,1-diyl) bis(2-(2-hexyl-N-methyldecanamido)acetate)] | higher |
| CCCCCCCCC(CCCCCC)C(=O)N(C)CC(=O)OCCCCCC(CCCCCOC(=O)CN(C)C(=O)C(CCCCCC)CCCCCCCC)OC(=O)CCCC(=O)OCCCN(C)C (stereo not shown) [lipid 19, 9,31-dihexyl-11,29-dimethyl-10,13,27,30-tetraoxo-14,26-dioxa-11,29-diazanonatriacon-tan-20-yl (3-(dimethylamino)propyl) glutarate] | higher |
| CCCCCCCCC(CCCCCC)C(=O)OCCCCCC(CCCCCOC(=O)CN(C)C(=O)C(CCCCCC)CCCCCCCC)N(C)CCCO (stereo not shown) [lipid 23, 11-((N-(2-Hexyldecanoyl)-N-methylglycyl)oxy)-6-((3-hydroxypropyl)(methyl)amino)-undecyl 2-hexyldecanoate] | higher |
| CCCCCCCCC(CCCCCC)C(=O)OCCCCCC(CCCCCOC(=O)CN(C)C(=O)C(CCCCCC)CCCCCCCC)N(C)CCO (stereo not shown) [lipid 24, 11-((N-(2-Hexyldecanoyl)-N-methylglycyl)oxy)-6-((2-hydroxyethyl)(methyl)amino)-undecyl 2-hexyldecanoate] | higher |
| CCCCCCCCC(CCCCCC)C(=O)OCCCCCC(CCCCCOC(=O)CN(C)C(=O)CC(CCCCCCC)CCCCCCC)N(C)CCCCO (stereo not shown) [lipid 25, 11-((N-(3-Heptyldecanoyl)-N-methylglycyl)oxy)-6-((4-hydroxybutyl)(methyl)amino)-undecyl 2-hexyldecanoate] | higher |
| CCCCCCCCC(CCCCCC)CC(=O)N(C)CC(=O)OCCCCCC(CCCCCOC(=O)C(CCCCCC)CCCCCCCC)N(C)CCCCO (stereo not shown) [lipid 27, 11-((N-(3-Hexylundecanoyl)-N-methylglycyl)oxy)-6-((4-hydroxybutyl)(methyl)-amino)-undecyl 2-hexyldecanoate] | higher |
| CCCCCCCCCC(=O)OCCCCCC(CCCCCOC(=O)CN(C)C(=O)CC(CCCCCC)CCCCCCCC)N(C)CCCCO (stereo not shown) [lipid 33, 11-((N-(3-Hexylundecanoyl)-N-methylglycyl)oxy)-6-((4-hydroxybutyl)(methyl)-amino)-undecyl decanoate] | higher |
| CCCCCCCCC(CCCCCC)C(=O)OCCCCCC(CCCCCO)N(C)CCCCOC(=O)CN(C)C(=O)C(CCCCCC)CCCCCCCC (stereo not shown) [lipid 36, 6-((4-((N-(2-Hexyldecanoyl)-N-methylglycyl)oxy)butyl)(methyl)amino)-11-hydroxy-undecyl 2-hexyldecanoate] | higher |

tested on: not given; assay: not given; conditions: delivery of siRNA; background statement; cited from earlier work

| Structure (SMILES) | siRNA required compared with KC2 |
| --- | --- |
| CCCCC/C=C\C/C=C\CCCCCCCCC(CCCCCCCC/C=C\C/C=C\CCCCC)OC(=O)CCCN(C)C [lipid 1] | about 3 times less |
